Results as given in patent US11046651B2, “Piperazine substituted azapine derivatives and uses thereof” (Alairion, Inc., priority 2019, dated 2021).

Key:
[1] = Human clearance and half-life projections (allometric scaling from monkey clearance)
Method: The biological activity of the compounds of the present disclosure may be determined utilizing projected human clearance (CL) and half-life in humans. An allometric scaling method, using a single species scaling from monkey clearance was used to project clearance. Human volume of distribution (Vd) was projected from animal Vd, adjusted for differences in plasma protein binding and assuming similar unbound Vd across species. Human half-life (T1/2) was calculated based on a one-compartmental model, using a relationship of T1/2=0.693×(predicted Vd/predicted CL).
An allometric scaling method, using a single species scaling from monkey clearance was used to project clearance. Human volume of distribution (Vd) was projected from animal Vd, adjusted for differences in plasma protein binding and assuming similar unbound Vd across species. Human half-life (T1/2) was calculated based on a one-compartmental model, using a relationship of T1/2=0.693×(predicted Vd/predicted CL).

male Wistar rats = assay: SCORE EEG/EMG sleep-wake monitoring: sleep continuity, number of arousals, depth of sleep; format: in vivo, rat; conditions: 30 mg/kg PO
Method: Example 30. Experimental Details and Methods for Determining Sleep Continuity, Number of Arousals, and Depth of Sleep
Treatment detail plots (see, e.g., FIGS. 1-10) depict pre- and post-treatment time series plot ±30 hours before and after treatment at CT-18 (6-hours after lights-off) or pre- and post-treatment time series plots 29 hr before and 31 hr after treatments at CT-5 (5-hours after lights-on). Treatment occurred at the beginning of the hour marked by a triangle on the abscissa of the plot. Variables were computed in hourly bins.
All data were plotted as group mean±SEM (see, e.g., FIGS. 1-10). The gray shaded area encompasses the vehicle treatment mean±SEM. Along the x-axis, time of treatment is marked by a triangle unless noted otherwise. Along the x-axis, light/dark bars indicate lights on/off.
Adult, male Wistar rats (approximately 270 g at time of surgery, Charles River Laboratories) were administered dexmedetomidine 25 μg/kg and anesthetized (2% isoflourane in 95/5 oxygen, to effect) and surgically prepared with a cranial implant that permitted chronic electro-encephalogram (EEG) and electromyogram (EMG) recording. Body temperature and locomotor activity were monitored via a miniature transmitter (Minimitter Series PDT4000 E-Mitter, Bend, Oreg.) surgically placed in the abdomen during the same anesthetic event when the cranial portion was implanted. The cranial implant consisted of miniature stainless steel screws (2 frontal [+3.9 AP from bregma, 2.0 ML], 2 occipital [−6.4 AP, 5.5 ML], and 1 ground placed sagittaly and posterior to lambda) for EEG recording. Two Teflon-coated multi-strand stainless steel wires were positioned under the nuchal trapezoid muscles for EMG recording. All leads were soldered to a miniature connector (Omnetics, Minneapolis, Minn.) and gas sterilized with ethylene oxide prior to surgery. The implant assembly was affixed to the skull by the combination of the EEG recording screws, cyanoacrylate applied between the hermetically sealed implant connector and skull, and a UV-curing dental acrylic. An analgesic (meloxicam 1 mg/kg IP) was administered 1 day prior to surgery and daily for 2 days post-surgery. Neosporin with lidocaine was applied topically to the peri-implant margin. At least three weeks were allowed for surgical recovery prior to any data collection.
Rats were housed individually within specially modified Innovive® cages equipped with a custom-built ultra-low-torque slip-ring commutator and a customized Innovive® polycarbonate cage-top. These cages were located on shelves of a modified stainless steel animal rack that was pre-wired for physiological and behavioral data collection. Food and water were available ad libitum and the ambient temperature was 22±1° C. A 24-hr light-dark cycle (LD 12:12) was maintained throughout the study using LED lighting strips. Light intensity averaged 35 lux at mid-level inside the cage. Relative humidity averaged 50% approximately. Animals were undisturbed for two days before and after each treatment.
Sleep and wakefulness were determined using SCORE™—a Linux and Windows-10 real-time computer-based sleep-wake and physiological monitoring system. Validation of the SCORE™ sleep stage identification algorithm in rodents and the system's utility in pre-clinical drug discovery and evaluation have been previously described (Edgar et al. Psychopharmacology 1991, 105, 374; Gilmour et al., Neuropharmacology 2012, 64, 224; McCarthy et al., 2016, Neuropharmacology 108, 415; Olive et al., J. Pharmacology &Experimental Therapeutics 1998 285, 1073; Phillips et al, Neuropharmacology 2012, 62, 1359; Seidel et al. J Pharmacology &Experimental Therapeutics 1995, 275, 263; Van Gelder et al. Sleep 1991, 14, 48). […]

D2 = D2 (Homo sapiens (Human), UniProt P14416); assay: D2 binding assay ([3H] 7-OH-DPAT, HEK293 D2L membranes); conditions: numeric values
D2, sequence (P14416 whole entry): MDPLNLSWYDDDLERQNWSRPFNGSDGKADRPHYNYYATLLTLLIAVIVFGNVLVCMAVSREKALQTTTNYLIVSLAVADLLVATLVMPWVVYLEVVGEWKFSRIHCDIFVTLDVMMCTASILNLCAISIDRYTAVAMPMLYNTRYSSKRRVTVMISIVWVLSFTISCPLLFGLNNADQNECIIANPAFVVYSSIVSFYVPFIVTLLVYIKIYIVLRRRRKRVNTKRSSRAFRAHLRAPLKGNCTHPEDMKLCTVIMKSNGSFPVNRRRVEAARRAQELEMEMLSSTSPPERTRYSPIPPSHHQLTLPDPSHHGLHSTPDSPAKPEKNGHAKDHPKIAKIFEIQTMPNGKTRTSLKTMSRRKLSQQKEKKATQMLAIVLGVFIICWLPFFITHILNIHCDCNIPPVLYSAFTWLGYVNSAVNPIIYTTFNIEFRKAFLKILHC
Method: D2 Binding Assay Protocol
The testing compounds were diluted with DMSO, starting at 2 mM, with 8-points and 5-fold serial dilutions. droperidol was diluted with DMSO, starting at 0.2 mM, with 8-points and 4-fold serial dilutions.
1 μL of a compound of the present disclosure and the reference compound (Table O) was transferred to an assay plate. 1 μL of droperidol was transferred to an assay plate according to the plate map for nonspecific binding (Low control: LC). 1 μL of DMSO was transferred to an assay plate according to the plate map for total binding (High control: HC). Following a plate map, 100 μL of the membrane stock solutions and radio ligand were added into the plate. The plates were sealed and shaken with 300 rpm.
Unifilter-96 GF/C filter plates were soaked with 50 μL of 0.3% PEI per well for about 0.5 hours at room temperature. When the binding assays were complete, the reaction mixture was filtered through the GF/B filter plates using Perkin Elmer Filtermate Harvester, and each plate was washed 4 times with cold wash buffer. The filter plates were dried for 1 hour at 50° C. After drying, the bottom of the filter plate wells were sealed using Perkin Elmer Unifilter-96 backing seal tape. 50 μL of Perkin Elmer Microscint 20 cocktail was added. The top of the filter plates were sealed with Perkin Elmer TopSeal-A sealing film.
^3H trapped on filters were counted using Perkin Elmer MicroBeta2 Reader. Inhibition constants were calculated using the following equation: […]
The data was analyzed using Prism 5. The model used was “log(inhibitor) vs. response—Variable slope” to fit the data and calculate IC50. The IC50 was then converted to Ki using the following equation: Ki=IC50/(1+L/Kd), wherein L is the radioligand concentration in the reaction system; Kd is the affinity of radioligand to the receptor. As shown in Table Q Compound No. 7 has a lower affinity for D2 when compared to Compounds A-2, A-3, A-4, and A-5.

Cc1ccc2c(c1)Oc1cc(C)ccc1C(N1CCN(CC(C)(C)C(=O)O)CC1)=N2 [Compound No. 7, 3-(4-(3,7-dimethyldibenzo[b,f][1,4]oxazepin-11-yl)piperazin-1-yl)-2,2-dimethylpropanoic acid]
T1/2 (h), projected human half-life ([1]; one-compartmental model, T1/2=0.693×(predicted Vd/predicted CL)): 4 to 8 h
CL (mL/min/kg), projected human clearance ([1]; single species scaling from monkey clearance): 1.3 mL/min/kg
reductions in the number of transitions from sleep to wake per hour relative to controls (male Wistar rats; CT-5, male Wistar rats): 40-50%
increase in sleep bout-length per hour relative to vehicle control (male Wistar rats; CT-18, male Wistar rats): 3-4 fold
normalized EEG delta power (slow wave activity) during nonREM sleep (male Wistar rats; CT-18, male Wistar rats): increases in EEG slow wave activity in nonREM sleep
Ki (D2): > 50 µM
